Experimental data published in US20240309038A1, “NOVEL GALACTOSIDE INHIBITOR OF GALECTINS” (GALECTO BIOTECH AB, priority 2020, published 2024).

Key:
[1] = CACO-2 A > B permeability; assay type: in vitro ADME; conditions: human
Text: The compounds of the present invention are novel β-D-galactopyranose compounds that unexpectedly have shown high affinity for galectin-3 and are considered novel potent drug candidates. In addition, it is seen that with these compounds the advantage is that the pyrazole moiety A^1 results in an improved uptake over CACO-2 cells predicting high oral bioavailability after oral administration and this is supported by disclosed ADME data herein. Further compared to compounds where A^1 is a triazole moiety this improvement is significant.

Human hepatic Clint = assay type: in vitro ADME
Gal-3 = Gal-3 (Homo sapiens, UniProt P17931); assay: Fluorescence anisotropy assay, inhibition of galectin / fluorescein tagged saccharide probe interaction; assay type: binding
Gal-3, sequence (P17931 whole entry, species assumed): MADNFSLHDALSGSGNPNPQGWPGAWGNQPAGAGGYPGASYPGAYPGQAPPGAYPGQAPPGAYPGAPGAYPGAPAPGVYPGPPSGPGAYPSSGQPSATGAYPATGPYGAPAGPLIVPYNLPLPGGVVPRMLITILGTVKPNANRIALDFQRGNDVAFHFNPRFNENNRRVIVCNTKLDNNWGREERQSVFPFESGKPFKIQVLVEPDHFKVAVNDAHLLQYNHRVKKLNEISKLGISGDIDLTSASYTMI
Procedure: The affinity of Example 1-59 for galectins were determined by a fluorescence anisotropy assay where the compound was used as an inhibitor of the interaction between galectin and a fluorescein tagged saccharide probe as described Sörme, P., Kahl-Knutsson, B., Huflejt, M., Nilsson, U. J., and Leffler H. (2004) Fluorescence polarization as an analytical tool to evaluate galectin-ligand interactions. Anal. Biochem. 334: 36-47, (Sarme et al., 2004)

Papp A→B [1] | CLint scaled (Human hepatic Clint) | Kd (Gal-3) | Compound
20 ×10⁻⁶ cm/s | 0.6 mL/min/kg | 12 nM | Cc1nc([C@@H]2OC(CO)[C@H](O)C(n3cc(-c4cc(F)c(Cl)c(F)c4)cn3)C2O)n(-c2ccc3nc(C)sc3c2)n1 (stereo in doubt) [Example 9, 6-{5-{3-[4-(4-Chloro-3,5-difluorophenyl)-1H-1,2-pyrazol-1-yl]-3-deoxy-β-D-galactopyranosyl}-3-methyl-1H-1,2,4-triazol-1-yl}-2-methylbenzothiazole]
18 ×10⁻⁶ cm/s | 1.3 mL/min/kg | 32 nM | Cc1nc([C@@H]2OC(CO)[C@H](O)C(n3cc(-c4cc(F)c(Cl)c(F)c4)cn3)C2O)n(-c2cc(Cl)cnc2C2CC2)n1 (stereo in doubt) [Example 1, 3-{5-{3-[4-(4-Chloro-3,5-difluorophenyl)-1H-1,2-pyrazol-1-yl]-3-deoxy-β-D-galactopyranosyl}-3-methyl-1H-1,2,4-triazol-1-yl}-5-chloro-2-cyclopropylpyridine]
10 ×10⁻⁶ cm/s | 0.2 mL/min/kg | 15 nM | Cc1nc([C@@H]2OC(CO)[C@H](O)C(n3cc(-c4cc(F)c(F)c(F)c4)cn3)C2O)n(-c2cc(Cl)cnc2C2CC2)n1 (stereo in doubt) [Example 13, 5-Chloro-3-{5-{3-deoxy-3-[4-(3,4,5-trifluorophenyl)-1H-1,2-pyrazol-1-yl]-β-D-galactopyranosyl}-3-methyl-1H-1,2,4-triazol-1-yl}-2-cyclopropylpyridine]
18 ×10⁻⁶ cm/s | 0.4 mL/min/kg | 6 nM | Cc1nc([C@@H]2OC(CO)[C@H](O)C(n3cc(-c4cc(F)c(Cl)c(F)c4)cn3)C2O)n(-c2cc(Cl)ccc2C(F)(F)F)n1 (stereo in doubt) [Example 5, 1-{5-{3-[4-(4-Chloro-3,5-difluorophenyl)-1H-1,2-pyrazol-1-yl]-3-deoxy-β-D-galactopyranosyl}-3-methyl-1H-1,2,4-triazol-1-yl}-5-chloro-2-(trifluoromethyl)benzene]
17 ×10⁻⁶ cm/s | 0.3 mL/min/kg | 22 nM | Cc1nc([C@@H]2OC(CO)[C@H](O)C(n3cc(-c4cc(F)c(F)c(F)c4)cn3)C2O)n(-c2ccc3nc(C)sc3c2)n1 (stereo in doubt) [Example 8, 6-{5-{3-Deoxy-3-[4-(3,4,5-trifluorophenyl)-1H-1,2-pyrazol-1-yl]-β-D-galactopyranosyl}-3-methyl-1H-1,2,4-triazol-1-yl}-2-methylbenzothiazole]
 |  | 520 nM | Cc1nc([C@@H]2OC(CO)[C@H](O)C(n3cc(-c4cc(F)c(F)c(F)c4)cn3)C2O)n(-c2ncc(Cl)s2)n1 (stereo in doubt) [Example 33, 5-Chloro-2-{5-{3-deoxy-3-[4-(3,4,5-trifluorophenyl)-1H-1,2-pyrazol-1-yl]-β-D-galactopyranosyl}-3-methyl-1H-1,2,4-triazol-1-yl}-thiazole]
 |  | 19 nM | Cc1nc([C@@H]2OC(CO)[C@H](O)C(n3cc(-c4cc(F)c(F)c(F)c4)cn3)C2O)n(-c2cc(C#N)ccc2C(F)(F)F)n1 (stereo in doubt) [Example 46, 5-Cyano-1-{5-{3-deoxy-3-[4-(3,4,5-trifluorophenyl)-1H-1,2-pyrazol-1-yl]-β-D-galactopyranosyl}-3-methyl-1H-1,2,4-triazol-1-yl}-2-(trifluoromethyl)benzene]
 |  | 100 nM | Cc1nc([C@@H]2OC(CO)[C@H](O)C(n3cc(-c4cc(F)c(F)c(F)c4)c(-c4ccc(F)cc4)n3)C2O)n(-c2cc(Cl)ccc2C(F)(F)F)n1 (stereo in doubt) [Example 55, 5-Chloro-1-{5-{3-deoxy-3-[4-(3,4,5-trifluorophenyl)-3-(4-fluorophenyl)-1H-1,2-pyrazol-1-yl]-β-D-galactopyranosyl}-3-methyl-1H-1,2,4-triazol-1-yl}-2-(trifluoromethyl)benzene]
